Tested on: LG0703-F948-PDC complex spheroid viability
Test: Anticancer human tumor LG0703-F948-PDC patient-derived lung adenocarcinoma cell line growth inhibition
Conditions: for IC50: curve of first compound; for viability, T/C: stronger effect = lower value
Method in brief: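 Complex spheroids of tumor cells with HUVEC and human MSCs, exposed to iadademstat combined with other agents. Each agent tested in half-log steps from near clinical Cmax (else 10 microM top), DMSO ≤0.25%.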
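Also: spheroids exposed to agents for seven days before readout.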
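For viability, T/C in this document: 100% = DMSO vehicle control wells as normalization base.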

## CC[C@@]1(O)C(=O)OCc2c1cc1n(c2=O)Cc2cc3c(CN(C)C)c(O)ccc3nc2-1 + NC1CCC(NC2CC2c2ccccc2)CC1
Second compound 0.1 µM
  IC50: > 100 nM
Second compound 0.316 µM
  IC50: > 100 nM
Second compound 1 µM
  IC50: > 100 nM
Second compound 3.16 µM
  IC50: > 100 nM
Second compound 10 µM
  IC50: > 100 nM
Second compound 0.1 µM, first compound 0.000316 µM
  viability, T/C: 103%
Second compound 0.1 µM, first compound 0.001 µM
  viability, T/C: 129%
Second compound 0.1 µM, first compound 0.00316 µM
  viability, T/C: 110%
Second compound 0.1 µM, first compound 0.01 µM
  viability, T/C: 87.4%
Second compound 0.1 µM, first compound 0.0316 µM
  viability, T/C: 64.8%
Second compound 0.1 µM, first compound 0.1 µM
  viability, T/C: 52.8%
Second compound 0.316 µM, first compound 0.000316 µM
  viability, T/C: 117%
Second compound 0.316 µM, first compound 0.001 µM
  viability, T/C: 111%
Second compound 0.316 µM, first compound 0.00316 µM
  viability, T/C: 104%
Second compound 0.316 µM, first compound 0.01 µM
  viability, T/C: 95.8%
Second compound 0.316 µM, first compound 0.0316 µM
  viability, T/C: 78.2%
Second compound 0.316 µM, first compound 0.1 µM
  viability, T/C: 63%
Second compound 1 µM, first compound 0.000316 µM
  viability, T/C: 128%
Second compound 1 µM, first compound 0.001 µM
  viability, T/C: 132%
Second compound 1 µM, first compound 0.00316 µM
  viability, T/C: 122%
Second compound 1 µM, first compound 0.01 µM
  viability, T/C: 101%
Second compound 1 µM, first compound 0.0316 µM
  viability, T/C: 77.7%
Second compound 1 µM, first compound 0.1 µM
  viability, T/C: 61.9%
Second compound 3.16 µM, first compound 0.000316 µM
  viability, T/C: 110%
Second compound 3.16 µM, first compound 0.001 µM
  viability, T/C: 134%
Second compound 3.16 µM, first compound 0.00316 µM
  viability, T/C: 117%
Second compound 3.16 µM, first compound 0.01 µM
  viability, T/C: 101%
Second compound 3.16 µM, first compound 0.0316 µM
  viability, T/C: 98.4%
Second compound 3.16 µM, first compound 0.1 µM
  viability, T/C: 69.6%
Second compound 10 µM, first compound 0.000316 µM
  viability, T/C: 130%
Second compound 10 µM, first compound 0.001 µM
  viability, T/C: 123%
Second compound 10 µM, first compound 0.00316 µM
  viability, T/C: 115%
Second compound 10 µM, first compound 0.01 µM
  viability, T/C: 96.6%
Second compound 10 µM, first compound 0.0316 µM
  viability, T/C: 96.8%
Second compound 10 µM, first compound 0.1 µM
  viability, T/C: 84.5%

## CCc1c2c(nc3ccc(O)cc13)-c1cc3c(c(=O)n1C2)COC(=O)[C@]3(O)CC + NC1CCC(NC2CC2c2ccccc2)CC1
Second compound 0.1 µM
  IC50: 1.31 nM
Second compound 0.316 µM
  IC50: 1.87 nM
Second compound 1 µM
  IC50: 1.89 nM
Second compound 3.16 µM
  IC50: 3.61 nM
Second compound 10 µM
  IC50: 5.11 nM
Second compound 0.1 µM, first compound 0.000949 µM
  viability, T/C: 55.8%
Second compound 0.1 µM, first compound 0.003 µM
  viability, T/C: 36.4%
Second compound 0.1 µM, first compound 0.00949 µM
  viability, T/C: 23.9%
Second compound 0.1 µM, first compound 0.03 µM
  viability, T/C: 15%
Second compound 0.1 µM, first compound 0.0949 µM
  viability, T/C: 8.81%
Second compound 0.1 µM, first compound 0.3 µM
  viability, T/C: 4.02%
Second compound 0.316 µM, first compound 0.000949 µM
  viability, T/C: 63.7%
Second compound 0.316 µM, first compound 0.003 µM
  viability, T/C: 40.2%
Second compound 0.316 µM, first compound 0.00949 µM
  viability, T/C: 24.8%
Second compound 0.316 µM, first compound 0.03 µM
  viability, T/C: 15.1%
Second compound 0.316 µM, first compound 0.0949 µM
  viability, T/C: 7.91%
Second compound 0.316 µM, first compound 0.3 µM
  viability, T/C: 3.79%
Second compound 1 µM, first compound 0.000949 µM
  viability, T/C: 62.8%
Second compound 1 µM, first compound 0.003 µM
  viability, T/C: 40.8%
Second compound 1 µM, first compound 0.00949 µM
  viability, T/C: 27.6%
Second compound 1 µM, first compound 0.03 µM
  viability, T/C: 15.9%
Second compound 1 µM, first compound 0.0949 µM
  viability, T/C: 7.93%
Second compound 1 µM, first compound 0.3 µM
  viability, T/C: 3.95%
Second compound 3.16 µM, first compound 0.000949 µM
  viability, T/C: 64.8%
Second compound 3.16 µM, first compound 0.003 µM
  viability, T/C: 52.5%
Second compound 3.16 µM, first compound 0.00949 µM
  viability, T/C: 35.3%
Second compound 3.16 µM, first compound 0.03 µM
  viability, T/C: 18.1%
Second compound 3.16 µM, first compound 0.0949 µM
  viability, T/C: 7.91%
Second compound 3.16 µM, first compound 0.3 µM
  viability, T/C: 4.52%
Second compound 10 µM, first compound 0.000949 µM
  viability, T/C: 78.8%
Second compound 10 µM, first compound 0.003 µM
  viability, T/C: 59%
Second compound 10 µM, first compound 0.00949 µM
  viability, T/C: 39.6%
Second compound 10 µM, first compound 0.03 µM
  viability, T/C: 19.9%
Second compound 10 µM, first compound 0.0949 µM
  viability, T/C: 8.18%
Second compound 10 µM, first compound 0.3 µM
  viability, T/C: 3.7%

Reference: PubChem BioAssay AID1918952 (Molecular Pharmacology Branch, DTP, NCI, 2023)
